Measured values taken from publication PMC3492849 (The Febs Journal, 2012).

These molecules were tested against PKD1L3/PKD2L1 (Mus musculus, UniProt A2A259+Q2EG98) (assay: Fura-2 Ca2+ imaging, neutralization method).
Type: cell-based

PKD1L3/PKD2L1, sequence (A2A259 whole entry): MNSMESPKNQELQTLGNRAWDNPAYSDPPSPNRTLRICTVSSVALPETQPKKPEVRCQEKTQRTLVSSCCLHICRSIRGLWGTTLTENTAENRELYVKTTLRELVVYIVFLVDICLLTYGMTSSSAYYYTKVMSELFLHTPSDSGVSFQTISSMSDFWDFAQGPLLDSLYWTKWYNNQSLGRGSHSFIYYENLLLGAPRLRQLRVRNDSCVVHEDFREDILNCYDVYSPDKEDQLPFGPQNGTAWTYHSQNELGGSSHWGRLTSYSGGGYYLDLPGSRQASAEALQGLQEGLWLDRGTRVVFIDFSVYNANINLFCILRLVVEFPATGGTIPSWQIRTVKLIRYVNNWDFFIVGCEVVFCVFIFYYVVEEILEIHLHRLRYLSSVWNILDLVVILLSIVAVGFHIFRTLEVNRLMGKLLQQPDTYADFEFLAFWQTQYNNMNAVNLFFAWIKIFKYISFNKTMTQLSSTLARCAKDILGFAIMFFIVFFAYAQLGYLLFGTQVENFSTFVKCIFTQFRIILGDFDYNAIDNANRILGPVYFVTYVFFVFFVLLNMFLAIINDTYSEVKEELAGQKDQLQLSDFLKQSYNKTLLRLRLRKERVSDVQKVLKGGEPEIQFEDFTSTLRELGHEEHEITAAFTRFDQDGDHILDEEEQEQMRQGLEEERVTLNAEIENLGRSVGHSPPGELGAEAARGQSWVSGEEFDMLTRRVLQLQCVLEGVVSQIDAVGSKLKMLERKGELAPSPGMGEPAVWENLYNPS
PKD1L3/PKD2L1, sequence (Q2EG98 21-2151): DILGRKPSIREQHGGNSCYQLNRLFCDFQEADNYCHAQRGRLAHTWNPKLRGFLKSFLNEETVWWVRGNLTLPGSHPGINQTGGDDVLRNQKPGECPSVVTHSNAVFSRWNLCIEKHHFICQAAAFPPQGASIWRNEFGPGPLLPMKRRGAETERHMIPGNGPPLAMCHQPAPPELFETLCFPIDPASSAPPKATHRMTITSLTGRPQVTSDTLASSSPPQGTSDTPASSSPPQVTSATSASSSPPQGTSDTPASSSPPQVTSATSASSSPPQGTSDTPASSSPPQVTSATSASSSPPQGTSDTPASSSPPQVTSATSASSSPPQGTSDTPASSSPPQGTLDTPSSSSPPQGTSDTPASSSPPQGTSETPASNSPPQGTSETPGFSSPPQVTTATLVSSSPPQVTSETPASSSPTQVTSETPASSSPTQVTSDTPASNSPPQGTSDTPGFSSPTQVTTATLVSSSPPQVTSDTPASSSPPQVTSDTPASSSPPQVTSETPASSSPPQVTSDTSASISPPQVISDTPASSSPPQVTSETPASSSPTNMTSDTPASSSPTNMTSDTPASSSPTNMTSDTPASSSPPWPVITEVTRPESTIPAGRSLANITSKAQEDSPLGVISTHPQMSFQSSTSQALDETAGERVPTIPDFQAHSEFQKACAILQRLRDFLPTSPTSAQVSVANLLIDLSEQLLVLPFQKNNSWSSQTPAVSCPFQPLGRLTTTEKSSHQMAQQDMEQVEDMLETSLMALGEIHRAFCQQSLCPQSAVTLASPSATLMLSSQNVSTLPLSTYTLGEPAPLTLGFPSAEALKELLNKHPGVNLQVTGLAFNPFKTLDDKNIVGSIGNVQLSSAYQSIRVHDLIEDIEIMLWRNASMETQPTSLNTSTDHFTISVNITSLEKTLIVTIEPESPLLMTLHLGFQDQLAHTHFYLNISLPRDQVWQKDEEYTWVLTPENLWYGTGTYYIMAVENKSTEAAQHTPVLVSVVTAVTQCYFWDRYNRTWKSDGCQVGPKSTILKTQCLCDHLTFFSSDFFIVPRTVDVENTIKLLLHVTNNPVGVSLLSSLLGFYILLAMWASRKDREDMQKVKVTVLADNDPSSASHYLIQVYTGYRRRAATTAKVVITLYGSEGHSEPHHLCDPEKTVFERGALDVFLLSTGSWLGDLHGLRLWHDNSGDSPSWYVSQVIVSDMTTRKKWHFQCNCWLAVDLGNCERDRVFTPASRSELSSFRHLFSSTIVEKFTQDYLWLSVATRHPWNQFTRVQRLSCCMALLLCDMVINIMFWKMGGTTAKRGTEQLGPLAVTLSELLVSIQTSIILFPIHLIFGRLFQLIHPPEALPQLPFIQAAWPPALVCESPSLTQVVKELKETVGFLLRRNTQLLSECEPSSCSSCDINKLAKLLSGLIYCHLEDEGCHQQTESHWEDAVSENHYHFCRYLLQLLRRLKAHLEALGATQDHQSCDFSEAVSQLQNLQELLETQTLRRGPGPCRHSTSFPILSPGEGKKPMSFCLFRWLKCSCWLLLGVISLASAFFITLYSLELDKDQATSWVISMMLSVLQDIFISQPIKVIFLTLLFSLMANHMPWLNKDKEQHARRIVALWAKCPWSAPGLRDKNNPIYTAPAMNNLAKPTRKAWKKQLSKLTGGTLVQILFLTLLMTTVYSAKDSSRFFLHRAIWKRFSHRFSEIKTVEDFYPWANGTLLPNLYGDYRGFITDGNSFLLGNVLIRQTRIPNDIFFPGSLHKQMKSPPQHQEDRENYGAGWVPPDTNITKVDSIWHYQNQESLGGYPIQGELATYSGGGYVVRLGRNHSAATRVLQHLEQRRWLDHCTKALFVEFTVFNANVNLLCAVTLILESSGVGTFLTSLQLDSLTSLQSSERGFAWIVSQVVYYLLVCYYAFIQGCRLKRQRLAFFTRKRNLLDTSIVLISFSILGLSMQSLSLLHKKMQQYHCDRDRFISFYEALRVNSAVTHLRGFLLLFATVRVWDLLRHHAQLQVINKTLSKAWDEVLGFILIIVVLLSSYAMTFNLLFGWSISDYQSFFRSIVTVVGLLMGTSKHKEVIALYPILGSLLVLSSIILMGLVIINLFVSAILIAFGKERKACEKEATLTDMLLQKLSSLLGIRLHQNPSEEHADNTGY

Row | IC50 [µM] | Structure (SMILES)
1 | 85.9 ± 34.7 | CCCCC[C@H](O)CC(=O)CCc1ccc(O)c(OC)c1 [6-gingerol]
2 | 48.1 ± 10.8 | COc1ccc(CCCOC(Cn2ccnc2)c2ccc(OC)cc2)cc1 (stereo not shown) [SKF96365]
3 | 32.5 ± 10.2 | COc1cc(CNC(=O)CCCC/C=C/C(C)C)ccc1O [capsaicin]
4 | 55 ± 14.2 | COc1cc(CNC(=O)CCCCCCC(C)C)ccc1O [dihydrocapsaicin]
